Test results reported in patent US20230167073A1 (Teijin Pharma Limited, priority 2020, published 2023).

Each compound was assayed against T1, Human TRPC6 (Homo sapiens, UniProt Q9Y210) (assay: Evaluation of TRPC6 channel inhibitory activity (1), FLIPR Calcium 5 Assay Kit, OAG stimulation (Compound Nos. 1-1293)). Conditions: Human TRPC6 stably-expressing cells, OAG 30 μM, FLIPR Calcium 5 Assay Kit; read-out: Inhibitory activity (pIC50 class) (converted).
T1 construct: expressed in transfected cells
T1 sequence (Q9Y210 1-931): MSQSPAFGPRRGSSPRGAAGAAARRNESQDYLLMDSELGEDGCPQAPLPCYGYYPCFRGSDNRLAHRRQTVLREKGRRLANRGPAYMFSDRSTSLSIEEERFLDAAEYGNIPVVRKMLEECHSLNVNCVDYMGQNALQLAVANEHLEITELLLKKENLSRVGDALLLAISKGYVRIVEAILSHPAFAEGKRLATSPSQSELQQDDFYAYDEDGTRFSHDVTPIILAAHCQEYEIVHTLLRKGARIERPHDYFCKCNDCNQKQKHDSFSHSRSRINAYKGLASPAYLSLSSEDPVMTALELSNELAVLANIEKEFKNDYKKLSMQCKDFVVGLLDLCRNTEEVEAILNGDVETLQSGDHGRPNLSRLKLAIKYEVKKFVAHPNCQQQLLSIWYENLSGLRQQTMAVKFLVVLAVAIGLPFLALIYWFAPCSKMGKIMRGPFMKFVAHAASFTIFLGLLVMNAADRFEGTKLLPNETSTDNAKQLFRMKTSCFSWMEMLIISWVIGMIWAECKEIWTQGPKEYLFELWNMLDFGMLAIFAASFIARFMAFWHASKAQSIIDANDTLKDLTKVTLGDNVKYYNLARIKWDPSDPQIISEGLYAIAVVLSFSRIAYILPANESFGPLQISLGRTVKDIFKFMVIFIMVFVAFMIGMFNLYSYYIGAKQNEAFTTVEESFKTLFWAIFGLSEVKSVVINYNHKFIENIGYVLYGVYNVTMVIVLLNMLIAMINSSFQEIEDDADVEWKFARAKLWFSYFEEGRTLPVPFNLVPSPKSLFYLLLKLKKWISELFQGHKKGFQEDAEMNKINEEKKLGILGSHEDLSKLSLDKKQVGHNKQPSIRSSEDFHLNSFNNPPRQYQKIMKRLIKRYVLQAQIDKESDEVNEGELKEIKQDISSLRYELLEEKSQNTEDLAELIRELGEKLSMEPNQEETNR
Type: cell-based
Summary of the method: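 Stable human TRPC6 line; fluorescent Ca2+ dye loading, then 20 min compound exposure before 30 μM OAG trigger. Peak-minus-baseline signal converted to % inhibition against untreated and unstimulated wells; potency given as pIC50 band.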

Row | SMILES | IC50
1 | Cn1nc(C2CC2)cc1Oc1cc(C#N)ccc1-c1ccc(CC2(N)COC2)cn1 [compound 610, 4-[5-[(3-aminooxetan-3-yl)methyl]pyridin-2-yl]-3-(5-cyclopropyl-2-methylpyrazol-3-yl)oxybenzonitrile] | < 10 nM
2 | Cc1cc(Oc2cc(C#N)ccc2-c2ncc(C3(N)CC3)cn2)cc(N2CCOCC2)n1 [compound 462, 4-[5-(1-aminocyclopropyl)pyrimidin-2-yl]-3-(2-methyl-6-morpholin-4-ylpyridin-4-yl)oxybenzonitrile] | > 1000 nM
3 | Cc1nc(Oc2cc(C#N)ccc2-n2cc(C(O)CN)cn2)cc(-c2ccc(F)cc2)n1 (stereo not shown) [Compound 140, 4-[4-(2-amino-1-hydroxyethyl)pyrazol-1-yl]-3-[6-(4-fluorophenyl)-2-methylpyrimidin-4-yl]oxybenzonitrile] | 10 to 1000 nM
4 | Cc1nc(Oc2cc(C#N)ccc2-c2ccc(CCN)nc2)cc(-c2ccccc2)n1 [Compound 75, 4-[6-(2-aminoethyl)pyridin-3-yl]-3-(2-methyl-6-phenylpyrimidin-4-yl)oxybenzonitrile] | 10 to 1000 nM
5 | Cc1nc(Oc2cc(C#N)ccc2-n2cc([C@H](O)CN)cn2)cc(-c2ccccc2F)n1 [compound 342, 4-[4-[(1S)-2-amino-1-hydroxyethyl]pyrazol-1-yl]-3-[6-(2-fluorophenyl)-2-methylpyrimidin-4-yl]oxybenzonitrile] | 10 to 1000 nM
6 | N#Cc1ccc(-c2ccc(CCN)nc2)c(Oc2cc(N3CCCCC3)cnn2)c1 [Compound 81, 4-[6-(2-aminoethyl)pyridin-3-yl]-3-(5-piperidin-1-ylpyridazin-3-yl)oxybenzonitrile] | > 1000 nM
7 | Cc1cc(Sc2cc(C#N)ccc2-c2ncc(CCN)cn2)cc(N2CCOCC2)n1 [compound 1260, 4-[5-(2-aminoethyl)pyrimidin-2-yl]-3-(2-methyl-6-morpholin-4-ylpyridin-4-yl)sulfanylbenzonitrile] | 10 to 1000 nM
8 | Cc1noc(C)c1-c1cc(Oc2cc(C#N)ccc2-c2ccc(CCN)cc2)cnn1 [Compound 110, 4-[4-(2-aminoethyl)phenyl]-3-[6-(3,5-dimethyl-1,2-oxazol-4-yl)pyridazin-4-yl]oxybenzonitrile] | > 1000 nM
9 | Cc1cccc(-c2cn(Cc3cc(C#N)ccc3-c3ccc(CCN)cn3)c(C)n2)c1 [compound 1155, 4-[5-(2-aminoethyl)pyridin-2-yl]-3-[[2-methyl-4-(3-methylphenyl)imidazol-1-yl]methyl]benzonitrile] | < 10 nM
10 | Cn1nc(-c2nccs2)cc1Oc1cc(C#N)ccc1-c1ccc([C@H](O)CN)cn1 [compound 536, 4-[5-[(1S)-2-amino-1-hydroxyethyl]pyridin-2-yl]-3-[2-methyl-5-(1,3-thiazol-2-yl)pyrazol-3-yl]oxybenzonitrile] | < 10 nM
11 | Cc1nc(Oc2cc(C#N)ccc2-n2ncc3c2CCC(N)C3O)cc(-c2ccccc2)n1 (stereo not shown) [Compound 192, 4-(5-amino-4-hydroxy-4,5,6,7-tetrahydroindazol-1-yl)-3-(2-methyl-6-phenylpyrimidin-4-yl)oxybenzonitrile] | 10 to 1000 nM
12 | Cc1nc(Oc2cc(C#N)ccc2-c2ncc(CCN)cn2)cc(N2CCC[C@H]2C)n1 [compound 859, 4-[5-(2-aminoethyl)pyrimidin-2-yl]-3-[2-methyl-6-[(2R)-2-methylpyrrolidin-1-yl]pyrimidin-4-yl]oxybenzonitrile] | < 10 nM
13 | N#Cc1ccc(-c2ncc(CN)cn2)c(Oc2cnnc(-c3ccccn3)c2)c1 [compound 817, 4-[5-(aminomethyl)pyrimidin-2-yl]-3-(6-pyridin-2-ylpyridazin-4 yl)oxybenzonitrile] | > 1000 nM
14 | N#Cc1ccc(-c2ccc(CCN)cn2)c(Sc2cnnc(N3CCCC3)c2)c1 [compound 1244, 4-[5-(2-aminoethyl)pyridin-2-yl]-3-(6-pyrrolidin-1-ylpyridazin-4-yl)sulfanylbenzonitrile] | < 10 nM
15 | Cc1nn(C2CCCCC2)cc1Oc1cc(C#N)ccc1-c1ncc(CN)cn1 [compound 865, 4-[5-(aminomethyl)pyrimidin-2-yl]-3-(1-cyclohexyl-3-methylpyrazol-4-yl)oxybenzonitrile] | > 1000 nM
16 | Cc1nc(Oc2cc(C#N)ccc2-c2ncc(CCN)cn2)cc(N2CCCC2=O)n1 [compound 880, 4-[5-(2-aminoethyl)pyrimidin-2-yl]-3-[2-methyl-6-(2-oxopyrrolidin-1-yl)pyrimidin-4-yl]oxybenzonitrile] | 10 to 1000 nM

Row | SMILES | IC50
17 | Cc1ccc(-c2cc(Oc3cc(C#N)ccc3-c3ccc(CCN)cn3)n(C)n2)nc1 [Compound 182, 4-[5-(2-aminoethyl)pyridin-2-yl]-3-[2-methyl-5-(5-methylpyridin-2-yl)pyrazol-3-yl]oxybenzonitrile] | < 10 nM
18 | Cn1nccc1Oc1cc(C#N)ccc1-c1ncc(CCN)cn1 [compound 311, 4-[5-(2-aminoethyl)pyrimidin-2-yl]-3-(2-methylpyrazol-3-yl)oxybenzonitrile] | > 1000 nM
19 | Cc1nc(Oc2cc(C#N)ccc2-c2ccc(CCNCCC(=O)O)cc2)cc(N2CCOCC2)n1 [Compound 56, 3-[2-[4-[4-cyano-2-(2-methyl-6-morpholin-4-ylpyrimidin-4-yl)oxyphenyl]phenyl]ethylamino] propanoic acid] | > 1000 nM
20 | N#Cc1ccc(-c2ccc(CCN)cn2)c(Oc2cnnc(Cl)c2)c1 [Compound 87, 4-[5-(2-aminoethyl)pyridin-2-yl]-3-(6-chloropyridazin-4-yl)oxybenzonitrile] | > 1000 nM
21 | CCN(CC(F)F)c1cc(Oc2cc(C#N)ccc2-c2ncc(CN)cn2)n(C)n1 [compound 874, 4-[5-(aminomethyl)pyrimidin-2-yl]-3-[5-[2,2-difluoroethyl(ethyl)amino]-2-methylpyrazol-3-yl]oxybenzonitrile] | < 10 nM
22 | Cn1cc(-c2cc(Oc3cc(C#N)ccc3-c3ncc(CN)cn3)n(C)n2)cn1 [compound 947, 4-[5-(aminomethyl)pyrimidin-2-yl]-3-[2-methyl-5-(1-methylpyrazol-4-yl)pyrazol-3-yl]oxybenzonitrile] | > 1000 nM
23 | Cc1nc(Oc2cc(C#N)ccc2-c2cccc(CCN)c2)cc(N2CCOCC2)n1 [Compound 194, 4-[3-(2-aminoethyl)phenyl]-3-(2-methyl-6-morpholin-4-ylpyrimidin-4-yl)oxybenzonitrile] | > 1000 nM
24 | Cn1nc(-c2nccs2)cc1Oc1cc(C#N)ccc1-c1ncc(CCN)cn1 [compound 391, 4-[5-(2-aminoethyl)pyrimidin-2-yl]-3-[2-methyl-5-(1,3-thiazol-2-yl)pyrazol-3-yl]oxybenzonitrile] | < 10 nM
25 | Cn1nc(C2CCCC2)cc1Oc1cc(C#N)ccc1-c1ncc(CCN)cn1 [compound 393, 4-[5-(2-aminoethyl)pyrimidin-2-yl]-3-(5-cyclopentyl-2-methylpyrazol-3-yl)oxybenzonitrile] | < 10 nM
26 | N#Cc1ccc(-c2ccc(C(CN)C(F)(F)F)cc2)c(Oc2cnnc(N3CCOCC3)c2)c1 (stereo not shown) [Compound 122, 4-[4-(3-amino-1,1,1-trifluoropropan-2-yl)phenyl]-3-(6-morpholin-4-ylpyridazin-4-yl)oxybenzonitrile] | 10 to 1000 nM
27 | NCc1cnc(-c2ccc(F)cc2C(=O)c2cnn(C3CCC3)c2)nc1 [compound 1109, [2-[5-(aminomethyl)pyrimidin-2-yl]-5-fluorophenyl]-(1-cyclobutylpyrazol-4-yl)methanone] | 10 to 1000 nM
28 | Cn1nc(C2CC2)cc1Oc1cc(C#N)ccc1-c1cc(C(=O)N2CCC[C@@H](N)C2)cn2ccnc12 [compound 757, 4-[6-[(3R)-3-aminopiperidine-1-carbonyl]imidazo[1,2-a]pyridin-8-yl]-3-(5-cyclopropyl-2-methylpyrazol-3-yl)oxybenzonitrile] | > 1000 nM
29 | Cn1nc2c(c1Oc1cc(C#N)ccc1-c1ncc(CN)cn1)COCC2 [compound 679, 4-[5-(aminomethyl)pyrimidin-2-yl]-3-[(2-methyl-6,7-dihydro-4H-pyrano[4,3-c]pyrazol-3-yl)oxy]benzonitrile] | > 1000 nM
30 | N#Cc1ccc(-c2ccc(CC3(N)COC3)cn2)c(Oc2cc(N3CCCC3)ncc2C#N)c1 [compound 738, 4-[2-[5-[(3-aminooxetan-3-yl)methyl]pyridin-2-yl]-5-cyanophenoxy]-6-pyrrolidin-1-ylpyridine-3-carbonitrile] | 10 to 1000 nM
31 | Cc1cc(Oc2cc(C#N)ccc2-c2ccc(N3CC[C@H](N)C3=O)cn2)cc(N2CCOCC2)n1 [compound 565, 4-[5-[(3S)-3-amino-2-oxopyrrolidin-1-yl]pyridin-2-yl]-3-(2-methyl-6-morpholin-4-ylpyridin-4-yl)oxybenzonitrile] | > 1000 nM
